Source: PubChem BioAssay AID256 (DTP/NCI, 2004)
“And” between values parts separate entries of the source, which are not always exact repeats. Identical values can stand only once. Inconclusive results and toxic doses are left out. Rule for the calls: active = survival T/C of 150% or more; inactive = T/C below 125% in these data.

Tested on: CD2F1 mice, L1210 leukemia ip, survival T/C
Assay: NCI In Vivo Anticancer Drug Screen. Data for tumor model L1210 Leukemia (intraperitoneal) in CD2F1 (CDF1) mice
Conditions: higher = longer survival
Procedure, shortened: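 In this screen, transplantable tumors were grown in mice given either the compound or its vehicle. Results were expressed as the treated measurement relative to the control measurement.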

[1] = endpoint: mean survival time, dose: 100.0 mg/kg/injection, schedule: Q01DX001 (ip), vehicle: saline
[2] = endpoint: mean survival time, dose: 200.0 mg/kg/injection, schedule: Q01DX001 (ip), vehicle: saline
[3] = endpoint: mean survival time, dose: 400.0 mg/kg/injection, schedule: Q01DX001 (ip), vehicle: saline
[4] = endpoint: mean survival time, dose: 6.25 mg/kg/injection, schedule: Q04DX003 (ip), vehicle: saline with Tween-80
[5] = endpoint: mean survival time, dose: 12.5 mg/kg/injection, schedule: Q04DX003 (ip), vehicle: saline with Tween-80
[6] = endpoint: mean survival time, dose: 25.0 mg/kg/injection, schedule: Q04DX003 (ip), vehicle: saline with Tween-80
[7] = endpoint: mean survival time, dose: 50.0 mg/kg/injection, schedule: Q01DX009 (ip), vehicle: saline with Tween-80
[8] = endpoint: mean survival time, dose: 100.0 mg/kg/injection, schedule: Q01DX009 (ip), vehicle: saline with Tween-80
[9] = endpoint: mean survival time, dose: 200.0 mg/kg/injection, schedule: Q01DX009 (ip), vehicle: saline with Tween-80
[10] = endpoint: mean survival time, dose: 100.0 mg/kg/injection, schedule: Q04DX003 (ip), vehicle: saline with Tween-80
[11] = endpoint: mean survival time, dose: 200.0 mg/kg/injection, schedule: Q04DX003 (ip), vehicle: saline with Tween-80
[12] = endpoint: mean survival time, dose: 400.0 mg/kg/injection, schedule: Q01DX009 (ip), vehicle: saline with Tween-80
[13] = endpoint: mean survival time, dose: 400.0 mg/kg/injection, schedule: Q04DX003 (ip), vehicle: saline with Tween-80

Measured: T/C

Cc1cccc(Cl)c1OCC1CO1 (stereo not drawn)
inactive: [1] 110 % of control | [2] 110 % of control | [3] 110 % of control

C=CCC(C(=O)O)(c1ccccc1)c1ccccc1
inactive: endpoint: mean survival time, dose: 50.0 mg/kg/injection, schedule: Q01DX009 (ip), vehicle: Klucel (hydroxypropylcellulose) (HPC) 95 % of control | endpoint: mean survival time, dose: 100.0 mg/kg/injection, schedule: Q01DX009 (ip), vehicle: Klucel (hydroxypropylcellulose) (HPC) 98 % of control | endpoint: mean survival time, dose: 200.0 mg/kg/injection, schedule: Q01DX009 (ip), vehicle: Klucel (hydroxypropylcellulose) (HPC) 98 % of control

O=C1C=CC(=O)C1=Cc1ccc(O)cc1
inactive: endpoint: mean survival time, dose: 5.0 mg/kg/injection, schedule: Q04DX002 (ip), vehicle: saline with Tween-80 100 % of control | endpoint: mean survival time, dose: 10.0 mg/kg/injection, schedule: Q04DX002 (ip), vehicle: saline with Tween-80 103 % of control

CCCCCCCCCCCCCCCC(=O)N(C/C=C/CN(CCCN(C)C)C(=O)CCCCCCCCCCCCCCC)CCCN(C)C
inactive: endpoint: mean survival time, dose: 6.25 mg/kg/injection, schedule: Q01DX009 (ip), vehicle: saline with Tween-80 92 % of control | [4] 95 % of control | endpoint: mean survival time, dose: 12.5 mg/kg/injection, schedule: Q01DX009 (ip), vehicle: saline with Tween-80 93 % of control | [5] 93 % of control | endpoint: mean survival time, dose: 25.0 mg/kg/injection, schedule: Q01DX009 (ip), vehicle: saline with Tween-80 94 % of control | [6] 98 % of control

CC1(C)OC2C(CF)OC(n3cc(Br)c(=O)[nH]c3=O)C2O1 (stereo not drawn)
inactive: endpoint: median survival time, dose: 12.5 mg/kg/injection, schedule: Q01DX005 (ip), vehicle: distilled water + Tween-80 98 % of control | endpoint: median survival time, dose: 25.0 mg/kg/injection, schedule: Q01DX005 (ip), vehicle: distilled water + Tween-80 94 % of control | endpoint: median survival time, dose: 50.0 mg/kg/injection, schedule: Q01DX005 (ip), vehicle: distilled water + Tween-80 101 % of control | endpoint: median survival time, dose: 100.0 mg/kg/injection, schedule: Q01DX005 (ip), vehicle: distilled water + Tween-80 103 % of control | endpoint: median survival time, dose: 200.0 mg/kg/injection, schedule: Q01DX005 (ip), vehicle: distilled water + Tween-80 88 % of control

Cc1ccc(C2=CSc3ccccc3N2)cc1
inactive: endpoint: mean survival time, dose: 100.0 mg/kg/injection, schedule: Q04DX002 (ip), vehicle: other 104 % of control | endpoint: mean survival time, dose: 200.0 mg/kg/injection, schedule: Q04DX002 (ip), vehicle: other 104 % of control

COc1ccc(OCCOC(=O)Nc2ccc(Cl)cc2C)cc1
inactive: [7] 90 % of control | [8] 96 % of control | [9] 100 % of control

CCc1ccc(NC(=O)c2ccccc2C(=O)O)cc1
inactive: [8] 102 % of control | [10] 101 % of control | [9] 98 % of control | [11] 97 % of control | [12] 105 % of control | [13] 97 % of control

O=NN(CCCl)C(=O)Oc1ccc(OC(=O)N(CCCl)N=O)cc1
inactive: endpoint: median survival time, dose: 3.12 mg/kg/injection, schedule: Q01DX009 (ip), vehicle: Klucel (hydroxypropylcellulose) (HPC) 104 % of control | endpoint: median survival time, dose: 6.25 mg/kg/injection, schedule: Q01DX009 (ip), vehicle: Klucel (hydroxypropylcellulose) (HPC) 114 % of control | endpoint: median survival time, dose: 12.5 mg/kg/injection, schedule: Q01DX009 (ip), vehicle: Klucel (hydroxypropylcellulose) (HPC) 118 % of control | endpoint: median survival time, dose: 25.0 mg/kg/injection, schedule: Q01DX009 (ip), vehicle: Klucel (hydroxypropylcellulose) (HPC) 113 % of control | endpoint: median survival time, dose: 50.0 mg/kg/injection, schedule: Q01DX009 (ip), vehicle: Klucel (hydroxypropylcellulose) (HPC) 93 % of control

Cc1ccc(C#N)cn1
inactive: [8] 101 % of control | endpoint: mean survival time, dose: 100.0 mg/kg/injection, schedule: Q04DX003 (ip), vehicle: saline sonified 96 % of control | [9] 97 % of control | endpoint: mean survival time, dose: 200.0 mg/kg/injection, schedule: Q04DX003 (ip), vehicle: saline sonified 96 % of control | [12] 90 % of control | endpoint: mean survival time, dose: 400.0 mg/kg/injection, schedule: Q04DX003 (ip), vehicle: saline sonified 89 % of control

COc1cc2c(c(OC)c1OC)-c1ccc(OC)c(=O)cc1C(=O)CC2
inactive: endpoint: mean survival time, dose: 5.0 mg/kg/injection, schedule: Q01DX Z (ip), vehicle: saline 121 % of control | endpoint: mean survival time, dose: 7.0 mg/kg/injection, schedule: Q01DX Z (ip), vehicle: saline 121 % of control | endpoint: mean survival time, dose: 10.0 mg/kg/injection, schedule: Q01DX Z (ip), vehicle: saline 114 % of control

CCOC(CN(N=O)c1ccccc1C(C)C)OCC
inactive: [8] 98 % of control | [10] 103 % of control | [9] 93 % of control | [11] 98 % of control | [13] 97 % of control

Cc1cc2c(=O)cc(-c3ccccc3)oc2c(C(=O)O)c1C
inactive: endpoint: median survival time, dose: 31.75 mg/kg/injection, schedule: Q01DX005 (ip), vehicle: saline with Tween-80 109 % of control | endpoint: median survival time, dose: 62.5 mg/kg/injection, schedule: Q01DX005 (ip), vehicle: saline with Tween-80 106 % of control | endpoint: median survival time, dose: 125.0 mg/kg/injection, schedule: Q01DX005 (ip), vehicle: saline with Tween-80 104 % of control | endpoint: median survival time, dose: 250.0 mg/kg/injection, schedule: Q01DX005 (ip), vehicle: saline with Tween-80 102 % of control

c1ccc(CNCCNCc2ccccc2)cc1
inactive: [8] 95 % of control | [10] 97 % of control

Cc1noc(N)c1C
inactive: [7] 92 % of control | [8] 95 % of control | [9] 92 % of control

O=CNc1ccc(O)cc1
inactive: [10] 93 % of control | [11] 101 % of control | [13] 103 % of control

CC(C)CCCC(C)C1CCC2C3C(O)C=C4CC(OC(=O)CCC(C)C)CCC4(C)C3CCC12C (stereo not drawn)
inactive: [8] 94 % of control | [9] 91 % of control | [12] 100 % of control

Nc1nc2c(c(=O)[nH]1)N(C(=S)Nc1ccccc1)C(CNc1ccc(C(=O)NC(CCC(=O)O)C(=O)O)cc1)CN2 (stereo not drawn)
inactive: [1] 101 % of control | [2] 101 % of control | [3] 104 % of control

C/C=C(\C(=C\C)c1ccc(OC(=O)c2ccccc2)c(C2CCCCC2)c1)c1ccc(O)c(C2CCCCC2)c1
inactive: endpoint: mean survival time, dose: 75.0 mg/kg/injection, schedule: Q01DX001 (ip), vehicle: saline 95 % of control | endpoint: mean survival time, dose: 150.0 mg/kg/injection, schedule: Q01DX001 (ip), vehicle: saline 95 % of control | endpoint: mean survival time, dose: 300.0 mg/kg/injection, schedule: Q01DX001 (ip), vehicle: saline 103 % of control

COCCOCCOCCOCCOCCN
inactive: endpoint: mean survival time, dose: 100.0 mg/kg/injection, schedule: Q04DX003 (ip), vehicle: saline 103 % of control | endpoint: mean survival time, dose: 200.0 mg/kg/injection, schedule: Q04DX003 (ip), vehicle: saline 101 % of control | endpoint: mean survival time, dose: 400.0 mg/kg/injection, schedule: Q04DX003 (ip), vehicle: saline 103 % of control

O=C(Nc1ccccc1C(=O)O)c1ccccc1
inactive: [6] 106 % of control | endpoint: mean survival time, dose: 50.0 mg/kg/injection, schedule: Q04DX003 (ip), vehicle: saline with Tween-80 101 % of control | [10] 98 % of control and 101 % of control

O=CNC(CSSCC(NC=O)C(=O)O)C(=O)O (stereo not drawn)
inactive: [8] 100 % of control | [9] 97 % of control | [12] 94 % of control

O=C(O)C(=O)O.[NH-]C(c1ccccc1)C([NH-])c1ccccc1.[Pt+2] (stereo not drawn)
inactive: [4] 118 % of control | [5] 124 % of control

CC(=O)C1=C(O)C(Cc2ccccc2)NC1=O (stereo not drawn)
inactive: endpoint: mean survival time, dose: 100.0 mg/kg/injection, schedule: Q01DX001 (ip), vehicle: Klucel (hydroxypropylcellulose) (HPC) 98 % of control | endpoint: mean survival time, dose: 200.0 mg/kg/injection, schedule: Q01DX001 (ip), vehicle: Klucel (hydroxypropylcellulose) (HPC) 102 % of control | endpoint: mean survival time, dose: 400.0 mg/kg/injection, schedule: Q01DX001 (ip), vehicle: Klucel (hydroxypropylcellulose) (HPC) 102 % of control

O=C(OCC(I)CC(F)(F)C(F)(F)F)c1ccc2cc(C(=O)OC(I)CC(F)(F)C(F)(F)F)ccc2c1 (stereo not drawn)
inactive: endpoint: mean survival time, dose: 75.0 mg/kg/injection, schedule: Q01DX001 (ip), vehicle: other 101 % of control | endpoint: mean survival time, dose: 150.0 mg/kg/injection, schedule: Q01DX001 (ip), vehicle: other 91 % of control | endpoint: mean survival time, dose: 300.0 mg/kg/injection, schedule: Q01DX001 (ip), vehicle: other 97 % of control

CCC(O)(CC)c1ccc2ncccc2c1
inactive: endpoint: mean survival time, dose: 75.0 mg/kg/injection, schedule: Q04DX003 (ip), vehicle: saline 98 % of control | endpoint: mean survival time, dose: 150.0 mg/kg/injection, schedule: Q04DX003 (ip), vehicle: saline 97 % of control | endpoint: mean survival time, dose: 300.0 mg/kg/injection, schedule: Q04DX003 (ip), vehicle: saline 98 % of control

Nc1cc(Sc2ccc(Cl)cc2)nc(N)n1
inactive: endpoint: mean survival time, dose: 25.0 mg/kg/injection, schedule: Q01DX001 (ip), vehicle: saline with Tween-80 102 % of control | endpoint: mean survival time, dose: 50.0 mg/kg/injection, schedule: Q01DX001 (ip), vehicle: saline with Tween-80 102 % of control | endpoint: mean survival time, dose: 100.0 mg/kg/injection, schedule: Q01DX001 (ip), vehicle: saline with Tween-80 98 % of control
